Where two headings read alike, the source gives them in different places.

Test [1] has as its target T1, CRAC channel (endogenous SOC in HEK293 cells) (Homo sapiens, UniProt Q96D31).
T1 construct: endogenous in cells; host or cells: HEK293 (ECACC)
Description: HEK Calcium Influx Assay (FLIPR). It is filed as cell-based. The protocol:
The effect of compounds of the invention on intracellular [Ca^2+] was tested in the HEK293 cell line (ECACC). HEK293 cells were cultured in DMEM/F12/Glutamax (Gibco) containing 10% FCS (Gibco), and maintained at 37° C., 5% CO2. Cell were split twice a week [3*10^6 (Mon-Thu) and 1*10^6 (Thu-Mon) cells/50 ml medium in T-175 ZK culture flasks, respectively]. Twenty four hours pre-experiment, cells were seeded on 96 well plates (Poly-D-Lysine 96well Black/Clear Plate, BD Biocoat REF 356640) at a density of 40,000 cells/well in DMEM/F12 (Gibco) containing 10% FCS (Gibco), and maintained at 37° C., 5% CO2. Prior to store-depletion, cell culture medium was removed and cells were loaded with the a Calcium-sensitive fluorescent dye comprised within the Calcium-4-assay kit (Molecular Devices) in nominally Ca^2+-free HBS buffer (140 mM NaCl, 4 mM KCl, 0.2 mM MgCl2, 11 mM D-glucose, and 10 mM HEPES, pH 7.4) according to manufacturer's instruction for 60 min at 37° C., 5% CO2. Passive depletion of intracellular Ca^2+-stores was then triggered by employing the SERCA inhibitor thapsigargin (2 μM final) for 10 min in the dark (RT). To prevent immediate Ca^2+-entry via the activated Store-operated channels (SOCs), cells were maintained in Ca^2+-free HBS buffer comprising 100 μM EGTA during store-depletion. Intracellular changes in [Ca^2+] were subsequently monitored with the FLIPR device (Molecular Devices). In brief, baseline imaging post-store depletion was allowed for 1 min before adjusting the extracellular buffer to 3 mM CaCl2. Increases in intracellular [Ca^2+] due to pre-activated SOC channels were monitored for 15 min until intracellular Ca^2+ levels had declined into a steady-state. Finally, compounds were administered and Ca^2+ signals were recorded for additional 10 min. Inhibition of endogenous SOC in HEK293 cells was quantified employing the average Ca^2+ signal measured from 9.5-10 min post-administration. Zero percent inhibition (MAX) was defined as the Ca^2+ signal recorded from wells to which DMSO-only had been added instead of compound. Hundred percent inhibition (MIN) was defined as the signal obtained from wells in which cells haven't been treated with TG prior to Ca^2+ addition and to which DMSO-only had been added instead of compound. For routine IC50 determinations of compounds, 8 concentrations of a serial dilution (1:3.16) were tested, starting off from 10 μM. Reliable IC50's could consequently be determined only, if they were at least sub 2.5-3 μM.

The subject of test [2] is Interleukin-2 (IL-2) production/release in Jurkat T cell line. Briefly: Jurkat IL-2 Production Assay. The test is classed as cell-based. The note with it: Homo sapiens; Jurkat T cells, PHA stimulation 22 hours. The protocol: Jurkat IL-2 Production Assay
The effect of compounds of the invention on Interleukin-2 (IL-2) production/release was tested in the Jurkat T cell line (ECACC) clone E6-1. Jurkat T cells were cultured in DMEM/F12/Glutamax (Gibco) containing 10% FCS (Gibco), and maintained at 37° C., 5% CO2. Cell were split twice a week [5*10^6 (Mon-Thu) and 1*10^7 (Thu-Mon) cells/50 ml medium in T-175 ZK culture flasks, respectively]. Prior to experiment, cells were seeded on 96 well plates (Cellstar 96 Well; Cat No. 655180, Greiner bio-one) at a density of 5*10^5 cells/well in DMEM/F12/Glutamax (Gibco) containing 10% FCS (Gibco), and incubated for 60 min at 37° C., 5% CO2. Subsequently, compounds were added and cells were allowed to incubate for 30 min at 37° C., 5% CO2. Cells were then stimulated with 15 μg/ml Phytohemagglutinin (PHA; Sigma) for 22 hours at 37° C., 5% CO2. Before sampling of the supernatants, cells were spun down (200*g/5 min/RT). The amount of IL-2 released into the supernatant was quantified with the human IL-2 AlphaLisa kit (Perkin Elmer) according to manufacturer's instructions. Luminescence proximity measurements were carried out in the Synergy H4 reader (BioTek) employing the fluorescence setting of the reader (ex: 680/30 nm; em: 620/40 nm). Inhibition of IL-production/release in/from Jurkat T cells was quantified as follows: Zero percent inhibition (MAX) was defined as the [IL-2] determined in supernatants derived from cells to which PHA & DMSO-only had been added instead of compound. Hundred percent inhibition (MIN) was defined as the [IL-2] determined in supernatants derived from cells that had been pre-treated with 1 μM CyclosporineA (Sigma) before the addition of 15 μg/ml PHA. For routine IC50 determinations of compounds, 8 concentrations of a serial dilution (1:3.16) were tested, starting off from 10 μM.

Setting [3] is: thapsigargin store depletion, read-out: % inhib. [@ 10 μM] FLIPR.
Where [4] appears, read: numeric values of Table 2, read-out: inhib. [@ 10 μM] FLIPR.

T1 sequence (Q96D31 whole entry): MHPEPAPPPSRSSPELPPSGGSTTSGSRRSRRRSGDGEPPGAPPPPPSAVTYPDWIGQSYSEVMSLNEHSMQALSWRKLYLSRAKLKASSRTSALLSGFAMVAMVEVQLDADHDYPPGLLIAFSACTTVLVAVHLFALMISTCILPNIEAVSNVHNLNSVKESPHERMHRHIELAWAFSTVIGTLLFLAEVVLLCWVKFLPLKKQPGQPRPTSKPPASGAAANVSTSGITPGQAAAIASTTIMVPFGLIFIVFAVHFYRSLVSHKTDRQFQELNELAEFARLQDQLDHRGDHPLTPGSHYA

As for `COc1cc(OCC2CC2)ncc1-c1cc(C(=O)Nc2c(F)cccc2F)nn1C` [Example 45, 5-[6-(Cyclopropyl-methoxy)-4-methoxy-pyridin-3-yl]-N-(2,6-difluoro-phenyl)-1-methyl-1H-pyrazole-3-carboxylic acid amide], the inhibition at 10 µM in test [1] (setting [3]) was more than 70%. The half-inhibitory concentration (IC50) (commonly the concentration that inhibits the measured activity by half) in test [2] was less than 0.5 µM.

As to `Cn1nc(C(=O)Nc2c(F)cccc2F)cc1-c1cnc(C2CC2)cc1C(F)(F)F` [Example 48, 5-[6-Cyclopropyl-4-(trifluoromethyl)-pyridin-3-yl]-N-(2,6-difluoro-phenyl)-1-methyl-1H-pyrazole-3-carboxylic acid amide], the inhibition at 10 µM in test [1] (setting [3]) is more than 70%. Moreover, the half-inhibitory concentration (IC50) in test [2] lay in the range of 0.5 to 1 µM.

`Cc1c(-c2cc(C(=O)Nc3c(F)cccc3F)nn2C)cnc(C2CC2)c1F` [Example 33, 5-(6-Cyclopropyl-5-fluoro-4-methyl-pyridin-3-yl)-N-(2,6-difluoro-phenyl)-1-methyl-1H-pyrazole-3-carboxylic acid amide]: the inhibition at 10 µM in test [1] (setting [3]) is more than 70%. Also, the 50% inhibitory concentration (IC50) in test [2] lay within 1 to 5 µM.

For `Cc1cc(OC(F)(F)F)ncc1-c1cc(C(=O)Nc2c(F)cncc2F)nn1C` [Example 11, N-(3,5-Difluoro-pyridin-4-yl)-1-methyl-5-[4-methyl-6-(trifluoromethyloxy)-pyridin-3-yl]-1H-pyrazole-3-carboxylic acid amide], the inhibition at 10 µM in test [1] (setting [4]) is 94%; in test [1] (setting [3]) it was more than 70%. Further, the IC50 in test [2] is less than 0.5 µM.

For the compound `COc1cc(OC2COC2)ncc1-c1cc(C(=O)Nc2c(F)cccc2F)nn1C` [Example 62, N-(2,6-Difluoro-phenyl)-5-[4-methoxy-6-(oxetan-3-yloxy)-pyridin-3-yl]-1-methyl-1H-pyrazole-3-carboxylic acid amide], the inhibition at 10 µM in test [1] (setting [3]) is 50 to 70%. Besides, the IC50 in test [2] lay within 1 to 5 µM.

`COc1cc(OC(F)F)ncc1-c1cc(C(=O)Nc2c(F)cncc2F)nn1C` [Example 44, 5-[6-(Difluoro-methoxy)-4-methoxy-pyridin-3-yl]-N-(3,5-difluoro-pyridin-4-yl)-1-methyl-1H-pyrazole-3-carboxylic acid amide]: the inhibition at 10 µM in test [1] (setting [3]) was more than 70%. Moreover, the IC50 in test [2] was less than 0.5 µM.

On to `COc1cc(OCC2COC2)ncc1-c1cc(C(=O)Nc2c(F)cccc2F)nn1C` [Example 51, N-(2,6-Difluoro-phenyl)-5-[4-methoxy-6-(oxetan-3-yl-methoxy)-pyridin-3-yl]-1-methyl-1H-pyrazole-3-carboxylic acid amide], for which the inhibition at 10 µM in test [1] (setting [3]) is 50 to 70%. The IC50 in test [2] was in the range of 1 to 5 µM.

Consider `CCOc1cc(C(F)(F)F)c(-c2cc(C(=O)Nc3c(F)cncc3F)nn2C)cn1` [Example 31, N-(3,5-Difluoro-pyridin-4-yl)-5-[6-ethoxy-4-(trifluoromethyl)-pyridin-3-yl]-1-methyl-1H-pyrazole-3-carboxylic acid amide], for which the inhibition at 10 µM in test [1] (setting [3]) is more than 70%. The half-maximal inhibitory concentration (IC50) in test [2] was in the range of 1 to 5 µM.

As for `COc1cc(OC)c(-c2c(C)c(C(=O)Nc3cncc(F)c3C)nn2C)cn1` [Example 67, 5-(4,6-Dimethoxy-pyridin-3-yl)-N-(5-fluoro-4-methyl-pyridin-3-yl)-1,4-dimethyl-1H-pyrazole-3-carboxylic acid amide], the inhibition at 10 µM in test [1] (setting [3]) is more than 70%. Also, the IC50 in test [2] fell in the range of 1 to 5 µM.

With `Cc1cc(OC2CC2)ncc1-c1cc(C(=O)Nc2c(F)cccc2F)nn1C` [Example 10, 5-(6-Cyclopropyloxy-4-methyl-pyridin-3-yl)-N-(2,6-difluoro-phenyl)-1-methyl-1H-pyrazole-3-carboxylic acid amide], the inhibition at 10 µM in test [1] (setting [4]) is 83%; in test [1] (setting [3]), more than 70%. The 50% inhibitory concentration (IC50) in test [2] lay in the range of 0.5 to 1 µM.

As to `Cc1c(-c2cc(C(=O)Nc3c(F)cncc3F)nn2C)cnc(C2CC2)c1F` [Example 34, 5-(6-Cyclopropyl-5-fluoro-4-methyl-pyridin-3-yl)-N-(3,5-difluoro-pyridin-4-yl)-1-methyl-1H-pyrazole-3-carboxylic acid amide], the inhibition at 10 µM in test [1] (setting [3]) was more than 70%. Also, the IC50 in test [2] is 1 to 5 µM.

For the compound `CCOc1cc(OC(F)F)c(-c2cc(C(=O)Nc3c(F)cccc3F)nn2C)cn1` [Example 47, 5-[4-(Difluoro-methoxy)-6-ethoxy-pyridin-3-yl]-N-(2,6-difluoro-phenyl)-1-methyl-1H-pyrazole-3-carboxylic acid amide], in test [1] (setting [3]), the inhibition at 10 µM is more than 70%. Besides, in test [2], the IC50 is less than 0.5 µM.

Take `COc1cc(OCC2CCC2)ncc1-c1cc(C(=O)Nc2c(F)cccc2F)nn1C` [Example 55, 5-[6-(Cyclobutyl-methoxy)-4-methoxy-pyridin-3-yl]-N-(2,6-difluoro-phenyl)-1-methyl-1H-pyrazole-3-carboxylic acid amide]: the inhibition at 10 µM in test [1] (setting [3]) was more than 70%. The half-inhibitory concentration (IC50) in test [2] was less than 0.5 µM.

Consider `CCOc1ncc(-c2cc(C(=O)Nc3c(F)cncc3F)nn2C)c(C)c1F` [Example 36, N-(3,5-Difluoro-pyridin-4-yl)-5-(6-ethoxy-5-fluoro-4-methyl-pyridin-3-yl)-1-methyl-1H-pyrazole-3-carboxylic acid amide], for which, in test [1] (setting [3]), the inhibition at 10 µM was 50 to 70%. For the same compound, the IC50 in test [2] fell in the range of 1 to 5 µM.

For `CCOc1cc(OC)c(-c2cc(C(=O)Nc3c(F)cncc3F)nn2C)cn1` [Example 14, N-(3,5-Difluoro-pyridin-4-yl)-5-(6-ethoxy-4-methoxy-pyridin-3-yl)-1-methyl-1H-pyrazole-3-carboxylic acid amide], in test [1] (setting [3]), the inhibition at 10 µM was more than 70%. Besides, the 50% inhibitory concentration (IC50) in test [2] is less than 0.5 µM.

In the case of `CCOc1cc(OCC)c(-c2cc(C(=O)Nc3c(F)cccc3F)nn2C)cn1` [Example 17, 5-(4,6-Diethoxy-pyridin-3-yl)-N-(2,6-difluoro-phenyl)-1-methyl-1H-pyrazole-3-carboxylic acid amide], in test [1] (setting [3]), the inhibition at 10 µM was more than 70%. Further, the half-maximal inhibitory concentration (IC50) in test [2] was less than 0.5 µM.

`CCc1cc(C)c(-c2cc(C(=O)Nc3c(F)cccc3F)nn2C)cn1` [Example 6, N-(2,6-Difluoro-phenyl)-5-(6-ethyl-4-methyl-pyridin-3-yl)-1-methyl-1H-pyrazole-3-carboxylic acid amide]: the inhibition at 10 µM in test [1] (setting [4]) is 67%; in test [1] (setting [3]) it was more than 70%. Also, the concentration for half-maximal inhibition (IC50) in test [2] fell in the range of 1 to 5 µM.

`CCOc1cc(OC)c(-c2cc(C(=O)Nc3c(F)cccc3F)nn2C)cn1` [Example 16, N-(2,6-Difluoro-phenyl)-5-(6-ethoxy-4-methoxy-pyridin-3-yl)-1-methyl-1H-pyrazole-3-carboxylic acid amide]: in test [1] (setting [3]), the inhibition at 10 µM was more than 70%. The IC50 in test [2] was less than 0.5 µM.

Consider `COc1cc(OC)c(-c2c(C)c(C(=O)Nc3c(F)cccc3F)nn2C)cn1` [Example 64, N-(2,6-Difluoro-phenyl)-5-(4,6-dimethoxy-pyridin-3-yl)-1,4-dimethyl-1H-pyrazole-3-carboxylic acid amide], for which, in test [1] (setting [3]), the inhibition at 10 µM is more than 70%. Besides, in test [2], the IC50 was 1 to 5 µM.

These data come from patent publication US20150166505A1, “PYRIDINYL-SUBSTITUTED PYRAZOLYL CARBOXAMIDES” (GRÜNENTHAL GMBH, priority 2013, published 2015).
